Source: PMC11278016, “Discovery of Prenyltransferase-Guided Hydroxyphenylacetic Acid Derivatives from Marine Fungus Penicillium sp. W21C371” (Marine Drugs, 2024)

Key:
[1] = molecular target: Escherichia coli β-glucuronidase (EcGUS) (Escherichia coli, UniProt P05804); experiment: EcGUS inhibition assay; type: biochemical; conditions: for IC50: EcGUS inhibition, mean ± SD, three independent experiments; for Ki′ (inhibition constant of the enzyme–substrate complex): EcGUS–substrate complex, secondary plot of Y-intercept versus [I]; for type of inhibition: Lineweaver–Burk plots; for Ki: free EcGUS, secondary plot of slope versus [I], Lineweaver–Burk, read-out: Ki (inhibition constant of the enzyme); for inhibition at 100 µM: preliminary screening at a concentration of 100 μM, read-out: relative inhibitory rate
Sequence of Escherichia coli β-glucuronidase (EcGUS) (P05804 whole entry): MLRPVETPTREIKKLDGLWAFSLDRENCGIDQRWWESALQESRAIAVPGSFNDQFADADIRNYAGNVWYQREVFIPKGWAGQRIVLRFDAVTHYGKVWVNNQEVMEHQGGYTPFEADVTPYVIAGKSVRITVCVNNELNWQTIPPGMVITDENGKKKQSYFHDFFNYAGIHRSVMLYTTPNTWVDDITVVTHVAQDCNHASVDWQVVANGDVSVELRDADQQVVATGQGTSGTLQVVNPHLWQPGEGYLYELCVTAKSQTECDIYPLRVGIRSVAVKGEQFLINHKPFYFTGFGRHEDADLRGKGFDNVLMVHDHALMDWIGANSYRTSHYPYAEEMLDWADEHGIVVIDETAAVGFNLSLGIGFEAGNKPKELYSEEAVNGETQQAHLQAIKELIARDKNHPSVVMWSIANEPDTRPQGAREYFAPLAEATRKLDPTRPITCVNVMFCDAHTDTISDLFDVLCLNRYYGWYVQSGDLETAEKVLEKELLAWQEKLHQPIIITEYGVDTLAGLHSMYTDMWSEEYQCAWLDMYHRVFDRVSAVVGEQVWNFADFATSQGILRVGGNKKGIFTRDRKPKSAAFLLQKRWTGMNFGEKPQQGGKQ
Procedure: All isolates 1–17 were evaluated for their in vitro inhibitory activity against EcGUS, a potential target for the treatment of drug-induced gastrointestinal disorders, employing D-saccharic acid 1,4-lactone (DSL) as the positive control. […] In view of the potent inhibitory activity of 2 and 3 against EcGUS, their kinetic mechanisms of inhibition were determined using Lineweaver–Burk plots (Figure 5 and Table S1). The inhibition constants of the enzyme Ki and the enzyme–substrate complex Ki^′ were obtained by secondary plots of “slope versus [I]” and “Y-intercept versus [I]”, respectively. […] As a mixed-type inhibitor of EcGUS, 3 was supposed to bind either the free EcGUS or the EcGUS–substrate complex. […] To the best of our knowledge, 2 and 3 represent the first citridone and ergosterol derivatives with potent EcGUS-inhibitory activity. However, 2 and 3 were obtained in limited amount in the present study, preventing the in vivo evaluation of their EcGUS inhibition activity. The optimization of the fermentation and separation processes with the aim of increasing the yields of 2 and 3 is underway, which may help to accumulate greater amounts of the two compounds for further in-depth pharmacological studies.
Optical rotations were obtained with a Rudolph Research Autopol III automatic polarimeter. IR spectra were recorded on a Thermo Nicolet 6700 FT-IR microscope instrument (FT-IR microscope transmission) in KBr pellets. UV spectra were measured on a TU-1900 spectrometer (Persee, Beijing, China). Meanwhile, 1D and 2D-NMR spectra were obtained at 600 MHz for ^1H and 150 MHz for ^13C on a Bruker Avance 600 spectrometer, with solvent peaks used as references. HRESIMS data were measured on an Agilent-6210-LC/TOF mass spectrometer (Agilent Technologies, Inc., Santa Clara, CA, USA). EcGUS-inhibitory activity was measured spectrophotometrically using a SpectraMax Plus 384 microplate reader (Molecular Devices, San Jose, CA, USA). Column chromatography (CC) was performed on silica gel (SiO2; 200–300 mesh; Qingdao Marine Chemical Co., Ltd.), ODS C-18 gel (50 mm; YMC Co., Ltd., Kyoto, Japan), and MCI CHP20P gel (75–150 μm, Tokyo, Japan). Semi-preparative HPLC was performed on an Cosmosil 5C18-MS-II column (5 μm, 250 × 10 mm) with a Shimadzu LC-20AT system eluting with methanol/water or acetonitrile/water at a flow rate of 3 mL/min. Chiral separation was performed on a Chiralpak AD-H column (5 μm, 4.6 × 250 mm). Thin layer chromatography (TLC) was performed on precoated silica gel GF254 plates (Qingdao Marine Chemical Co., Ltd., Qingdao, China) and visualized by UV light and/or spraying with 10% H2SO4 in 95% EtOH, followed by heating. All solvents used were of analytical grade and obtained from commercially available sources. All reagents used for biological evaluation were obtained from Sigma-Aldrich (St. Louis, MO, USA).
The EcGUS inhibition assay was performed according to the method previously reported, employing DSL as the positive control. The results are presented as means ± SD for three independent experiments.

[2] = system: Candida albicans; design: method as in PMID 19160522; conditions: against Candida albicans; cited from earlier work
[3] = system: methicillin-resistant Staphylococcus aureus (MRSA); design: method as in PMID 24643052; conditions: MRSA virulence factor; cited from earlier work

## CC1=CC2(C)Oc3c(-c4ccccc4)c[nH]c(=O)c3C2C1C (stereo not shown) [Compound 2, citridone A]
[1]
  IC50: 44.6 ± 0.84 µM
  Ki′ (inhibition constant of the enzyme–substrate complex): 69.20 µM
  type of inhibition: non-competitive inhibitor
  Ki: 76.3 µM
  inhibition at 100 µM: > 60%
[1]; inhibitor concentration 0.02 mM
  Vmax: 38.33 ± 2.97 mg/μmol⋅min
[1]; inhibitor concentration 0.04 mM
  Vmax: 32.36 ± 3.11 mg/μmol⋅min
[1]; inhibitor concentration 0.08 mM
  Vmax: 23.58 ± 2.49 mg/μmol⋅min
[2]
  potentiation of miconazole activity: potentiator of miconazole
[3]
  inhibition of staphyloxanthin biosynthesis: inhibit the biosynthesis of staphyloxanthin

## CC(=C[C@@H](C)[C@H]1CC[C@@H]2[C@]1(C)CC=C1[C@]23C=C[C@]2(C[C@@H](O)CC[C@]12C)OO3)[C@H](C)C(C)C [Compound 3, 5α,8α-epidioxy-23,24(R)-dimethylcholesta-6,9(11),22-trien-3β-ol]
[1]
  IC50: 21.6 ± 0.76 µM
  Ki′ (inhibition constant of the enzyme–substrate complex): 48.80 µM
  type of inhibition: mixed-type
  Ki: 89 µM
  inhibition at 100 µM: > 60%
[1]; inhibitor concentration 0.015 mM
  Vmax: 29.05 ± 1.14 mg/μmol⋅min
[1]; inhibitor concentration 0.030 mM
  Vmax: 22.03 ± 1.06 mg/μmol⋅min
[1]; inhibitor concentration 0.050 mM
  Vmax: 18.22 ± 0.64 mg/μmol⋅min

## O=C(O)[C@@H](O)[C@H]1OC(=O)[C@H](O)[C@H]1O [DSL, D-saccharic acid 1,4-lactone, reference compound]
[1]
  IC50: 47.9 ± 0.89 µM
